Experimental data reported in patent publication US11400063B2, “Early administration of low-dose colchicine after myocardial infarction” (INSTITUT DE CARDIOLOGIE DE MONTREAL, priority 2019, dated 2022).

Test system: patients recruited within 30 days after a myocardial infarction
Assay: COLCOT time-to-treatment initiation (TTI) analysis
Assay type: in vivo, human
Conditions: for All Coronary Revascularizations, HR (95% CI) / All-cause death, HR (95% CI) / MI, HR (95% CI) / Primary composite endpoint, HR (95% CI) / Resuscitated cardiac arrest, HR (95% CI) / Secondary Composite Endpoint, HR (95% CI) / Stroke, HR (95% CI) / Urgent hospitalization for angina requiring coronary revascularization, HR (95% CI) / Time to first positively adjudicated primary endpoint, HR (95% CI): colchicine vs. placebo
Method: (§1) The results of the COLCOT trial have been further analyzed to determine if time to treatment initiation (TTI) had any effect on the outcome of the treatment. Three different cutoffs for TTI were used in order to determine the association between early initiation of therapy and clinical outcomes. These cutoffs were determined based on the usual journey of patients with MI. The first 30-day post-MI timeline was divided into three independent periods of time, and analyzed as such: from day 0 to 3, referring to in-hospital management; from day 4 to 7, referring to early post-discharge period and from day 8 to 30, referring to late post-discharge period.
COLCOT was an international multicenter, randomized, double-blinded trial that randomly assigned patients to receive either low-dose colchicine (0.5 mg once daily) or placebo. The study protocol and main results have been published (see, Tardif et al., N Engl J Med 2019). […] Main exclusion criteria were severe heart failure, reduced left ventricular ejection fraction (<35%), recent stroke (<3 months), type 2 MI, recent (<3 years) or planned coronary artery bypass graft (CABG), history of cancer (<3 years), and inflammatory bowel disease or chronic diarrhea. All patients enrolled in the trial benefited from percutaneous coronary intervention whenever indicated and guidelines-directed management of CV disease prior to randomization (see. Tardif et al., N Engl J Med 2019).
The primary efficacy endpoint was a composite of CV death, resuscitated cardiac arrest, MI, stroke, or urgent hospitalization for angina requiring coronary revascularization. The secondary endpoints consisted of the components of the primary efficacy endpoint, all-cause death, and a composite of CV death, resuscitated cardiac arrest, MI, or stroke. Exploratory endpoints included all coronary revascularizations, including both elective and urgent coronary revascularizations.
as §1, with “Three” for “The results of the COLCOT trial have been further analyzed to determine if time to treatment initiation (TTI) had any effect on the outcome of the treatment. Three”
Both the TTI of less than 4 days and the TTI of less than 5 days was were calculated using a basic model (Table 4 and Table 6) as well as an adjusted model (Table 5 and Table 7) which is described below in the statistical analysis section. In all cases, the interaction p-value was not significant (p>0.05), meaning that the conclusion over Placebo vs. Colchicine group can be obtained directly from the respective p-values for HR. In other words, relationships within the placebo and colchicine groups with TTI are both linear/parallel and the interpretation is straightforward.
For the present TTI analysis, the data were centrally analyzed by an independent academic biostatistics center at the Montreal Health Innovations Coordinating Center. The analysis was conducted amongst patients who received at least one dose of the study medication (referred to as the safety population in the main protocol, FIG. 1). TTI was defined as the length of time in days between the index MI and the initiation of the study medication, and three specific cutoffs were analyzed ([…], days 4 to […]). Early initiation of therapy was defined as TTI≤3 days. Baseline characteristics were summarized using counts and percentages for categorical variables and mean±standard deviation (SD) for continuous variables. For each baseline characteristic, comparisons were made using ANOVA for continuous variables and Chi-Square test for categorical variables according to TTI strata. […]

[1] = TTI 0-3 days, listed as colchicine
[2] = delay between randomization and index MI [0-4] days
[3] = delay between randomization and index MI [0-5] days
[4] = delay between randomization and index MI [5-30] days
[5] = delay between randomization and index MI [6-30] days

## COc1cc2c(c(OC)c1OC)-c1ccc(OC)c(=O)cc1[C@@H](NC(C)=O)CC2 [Colchicine, colchicine]
TTI 0-3 days, N = 1193
  All Coronary Revascularizations, % of patients: 5.5%
  All Coronary Revascularizations, no. of patients: 33 no.
  All-cause death, % of patients: 1.0%
  All-cause death, no. of patients: 6 no.
  MI, % of patients: 2.8%
  MI, no. of patients: 17 no.
  Primary composite endpoint, % of patients: 4.3%
  Primary composite endpoint, no. of patients: 26 no.
  Resuscitated cardiac arrest, % of patients: 0.2%
  Resuscitated cardiac arrest, no. of patients: 1 no.
  Secondary Composite Endpoint, % of patients: 3.3%
  Stroke, % of patients: 0.2%
  Stroke, no. of patients: 1 no.
  Urgent hospitalization for angina requiring coronary revascularization, % of patients: 1%
  Urgent hospitalization for angina requiring coronary revascularization, no. of patients: 6 no.
TTI 0-3 days, N = 1193, CV death, resuscitated cardiac arrest, MI or stroke
  Secondary Composite Endpoint, no. of patients: 20 no.
TTI 0-3 days
  All Coronary Revascularizations, HR (95% CI): 0.63 (0.40-0.97); p = 0.037
  All-cause death, HR (95% CI): 1.03 (0.33-3.19); p = 0.962
  MI, HR (95% CI): 0.58 (0.32-1.05); p = 0.071
  Primary composite endpoint, HR (95% CI): 0.52 (0.32-0.84); p = 0.007
  Resuscitated cardiac arrest, HR (95% CI): 0.33 (0.03-3.20); p = 0.340
  Secondary Composite Endpoint, HR (95% CI): 0.55 (0.32-0.95); p = 0.031
  Stroke, HR (95% CI): 0.21 (0.02-1.81); p = 0.156
  Urgent hospitalization for angina requiring coronary revascularization, HR (95% CI): 0.35 (0.14-0.88); p = 0.026
[1]
  All Coronary Revascularizations, HR (95% CI): 0.63
  All-cause death, HR (95% CI): 1.03
  MI, HR (95% CI): 0.58
  Primary composite endpoint, HR (95% CI): 0.52
  Resuscitated cardiac arrest, HR (95% CI): 0.33
  Secondary Composite Endpoint, HR (95% CI): 0.55
  Stroke, HR (95% CI): 0.21
  Urgent hospitalization for angina requiring coronary revascularization, HR (95% CI): 0.35
TTI 4-7 days, N = 720
  All Coronary Revascularizations, % of patients: 6.9%
  All Coronary Revascularizations, no. of patients: 25 no.
  All-cause death, % of patients: 2.2%
  All-cause death, no. of patients: 8 no.
  MI, % of patients: 4.4%
  MI, no. of patients: 16 no.
  Primary composite endpoint, % of patients: 6.0%
  Primary composite endpoint, no. of patients: 22 no.
  Resuscitated cardiac arrest, % of patients: 0.5%
  Resuscitated cardiac arrest, no. of patients: 2 no.
  Secondary Composite Endpoint, % of patients: 4.9%
  Secondary Composite Endpoint, no. of patients: 18 no.
  Stroke, % of patients: 0.3%
  Stroke, no. of patients: 1 no.
  Urgent hospitalization for angina requiring coronary revascularization, % of patients: 1.1%
  Urgent hospitalization for angina requiring coronary revascularization, no. of patients: 4 no.
TTI 4-7 days
  All Coronary Revascularizations, HR (95% CI): 1.41 (0.76-2.61); p = 0.275
  All-cause death, HR (95% CI): 1.03 (0.37-2.84); p = 0.957
  MI, HR (95% CI): 1.67 (0.74-3.78); p = 0.218
  Primary composite endpoint, HR (95% CI): 0.96 (0.53-1.75); p = 0.896
  Resuscitated cardiac arrest, HR (95% CI): 1.90 (0.17-20.95); p = 0.600
  Secondary Composite Endpoint, HR (95% CI): 1.04 (0.53-2.03); p = 0.919
  Stroke, HR (95% CI): 0.28 (0.03-2.71); p = 0.272
  Urgent hospitalization for angina requiring coronary revascularization, HR (95% CI): 0.63 (0.18-2.24); p = 0.476
TTI ≥ 8 days, N = 2748
  All Coronary Revascularizations, % of patients: 5.3%
  All Coronary Revascularizations, no. of patients: 72 no.
  All-cause death, % of patients: 1.9%
  All-cause death, no. of patients: 26 no.
  MI, % of patients: 3.8%
  MI, no. of patients: 52 no.
  Primary composite endpoint, % of patients: 5.7%
  Primary composite endpoint, no. of patients: 77 no.
  Resuscitated cardiac arrest, % of patients: 0.1%
  Resuscitated cardiac arrest, no. of patients: 2 no.
  Secondary Composite Endpoint, % of patients: 4.9%
  Secondary Composite Endpoint, no. of patients: 67 no.
  Stroke, % of patients: 0.1%
  Stroke, no. of patients: 2 no.
  Urgent hospitalization for angina requiring coronary revascularization, % of patients: 1.1%
  Urgent hospitalization for angina requiring coronary revascularization, no. of patients: 15 no.
TTI ≥ 8 days
  All Coronary Revascularizations, HR (95% CI): 0.81 (0.59-1.10); p = 0.172
  All-cause death, HR (95% CI): 0.90 (0.53-1.51); p = 0.684
  MI, HR (95% CI): 0.93 (0.64-1.35); p = 0.710
  Primary composite endpoint, HR (95% CI): 0.82 (0.61-1.11); p = 0.200
  Resuscitated cardiac arrest, HR (95% CI): 1.02 (0.14-7.22); p = 0.986
  Secondary Composite Endpoint, HR (95% CI): 0.92 (0.66-1.28); p = 0.629
  Stroke, HR (95% CI): 0.19 (0.04-0.84); p = 0.029
  Urgent hospitalization for angina requiring coronary revascularization, HR (95% CI): 0.61 (0.32-1.16); p = 0.131
[0-4] days, adjusted Cox model
  Time to first positively adjudicated primary endpoint, HR (95% CI): 0.58 (0.36; 0.89)
[0-4] days, adjusted Cox model, listed as colchicine
  Time to first positively adjudicated primary endpoint, HR (95% CI): 0.58
[0-4] days, basic Cox model
  Time to first positively adjudicated primary endpoint, HR (95% CI): 0.57 (0.37; 0.87)
[0-5] days, adjusted Cox model, listed as colchicine
  Time to first positively adjudicated primary endpoint, HR (95% CI): 0.68 (0.45-1.02)
[0-5] days, basic Cox model
  Time to first positively adjudicated primary endpoint, HR (95% CI): 0.67 (0.45; 1.01)
[5-20] days, adjusted Cox model
  Time to first positively adjudicated primary endpoint, HR (95% CI): 0.84 (0.64; 1.11)
[5-20] days, basic Cox model
  Time to first positively adjudicated primary endpoint, HR (95% CI): 0.83 (0.63; 1.09)
[6-30] days, adjusted Cox model
  Time to first positively adjudicated primary endpoint, HR (95% CI): 0.35 (0.60, 1.05)
[6-30] days, basic Cox model
  Time to first positively adjudicated primary endpoint, HR (95% CI): 0.78 (0.59; 1.03)
Colchicine initiated between days 0 and 3, vs placebo
  reduction in the risk of the composite primary endpoint: 48%
[2]
  Positively adjudicated primary endpoint No, % of patients: (95.6%)
  Positively adjudicated primary endpoint No, no. of patients: 734 no.
  Positively adjudicated primary endpoint Yes, % of patients: (4.4%)
  Positively adjudicated primary endpoint Yes, no. of patients: 34 no.
[3]
  Positively adjudicated primary endpoint No, % of patients: (95.3%)
  Positively adjudicated primary endpoint No, no. of patients: 819 no.
  Positively adjudicated primary endpoint Yes, % of patients: (4.7%)
  Positively adjudicated primary endpoint Yes, no. of patients: 40 no.
[4]
  Positively adjudicated primary endpoint No, % of patients: (94.1%)
  Positively adjudicated primary endpoint No, no. of patients: 1463 no.
  Positively adjudicated primary endpoint Yes, % of patients: (5.9%)
  Positively adjudicated primary endpoint Yes, no. of patients: 91 no.
[5]
  Positively adjudicated primary endpoint No, % of patients: (94.2%)
  Positively adjudicated primary endpoint No, no. of patients: 1378 no.
  Positively adjudicated primary endpoint Yes, % of patients: (5.8%)
  Positively adjudicated primary endpoint Yes, no. of patients: 85 no.
Early initiation of low-dose colchicine
  reduction of secondary efficacy endpoint (CV death, resuscitated cardiac arrest, MI or stroke): 45%
